PubChem BioAssay AID1259407 (Chemical Carcinogenesis Research Information System (CCRIS), 2018)
Active and inactive are the calls of the source. How the calls were made is not given here.

Test system: CCRIS mutagenicity, Ames/micronucleus/aberration tests
Assay: CCRIS mutagenicity studies
[1] = Test System: AMES SALMONELLA TYPHIMURIUM, Strain/Indicator: TA98, Metabolic Activation: NONE, Method: PREINCUBATION
[2] = Test System: AMES SALMONELLA TYPHIMURIUM, Strain/Indicator: TA100, Metabolic Activation: NONE, Method: PREINCUBATION
[3] = Test System: AMES SALMONELLA TYPHIMURIUM, Strain/Indicator: TA1535, Metabolic Activation: NONE, Method: PREINCUBATION
[4] = Test System: AMES SALMONELLA TYPHIMURIUM, Strain/Indicator: TA1537, Metabolic Activation: NONE, Method: PREINCUBATION
[5] = Test System: AMES SALMONELLA TYPHIMURIUM, Strain/Indicator: TA1538, Metabolic Activation: NONE, Method: PREINCUBATION

What does the source list for C1CCC(C(CC2CCCCN2)C2CCCCC2)CC1 (stereo not drawn)?
mutagenic call (Test System: AMES SALMONELLA TYPHIMURIUM, Strain/Indicator: TA100(FR1), Metabolic Activation: NONE, Method: STANDARD PLATE): inactive; negative; mutagenic call (Test System: AMES SALMONELLA TYPHIMURIUM, Strain/Indicator: TA100(FR1), Metabolic Activation: RAT, LIVER, S-9, PHENOBARBITAL AND 3-METHYLCHOLANTHRENE, Method: STANDARD PLATE): inactive; negative; mutagenic call (Test System: AMES SALMONELLA TYPHIMURIUM, Strain/Indicator: TA100, Metabolic Activation: NONE, Method: STANDARD PLATE): inactive; negative; mutagenic call (Test System: AMES SALMONELLA TYPHIMURIUM, Strain/Indicator: TA100, Metabolic Activation: RAT, LIVER, S-9, PHENOBARBITAL AND 3-METHYLCHOLANTHRENE, Method: STANDARD PLATE): inactive; negative; mutagenic call (Test System: CHINESE HAMSTER V-79, Strain/Indicator: V-79/6-THIOGUANINE, Metabolic Activation: NONE): inactive; negative; mutagenic call (Test System: CHINESE HAMSTER V-79, Strain/Indicator: V-79/6-THIOGUANINE, Metabolic Activation: RAT, LIVER, HEPATOCYTES): active; positive; mutagenic call (Test System: CHINESE HAMSTER V-79, Strain/Indicator: V-79/OUABAIN, Metabolic Activation: NONE): inactive; negative; mutagenic call (Test System: CHINESE HAMSTER V-79, Strain/Indicator: V-79/OUABAIN, Metabolic Activation: RAT, LIVER, HEPATOCYTES): inactive; negative

For CN(C)c1ccc(/C=C/c2ccccc2)cc1, which mutagenic call (Test System: AMES SALMONELLA TYPHIMURIUM, Strain/Indicator: TA98, Metabolic Activation: HAMSTER, LIVER, S-9, AROCLOR 1254, Method: STANDARD PLATE) is on record?
The mutagenic call was “active; positive”.

And the mutagenic call (Test System: AMES SALMONELLA TYPHIMURIUM, Strain/Indicator: TA98, Metabolic Activation: HAMSTER, LIVER, S-9, Method: PREINCUBATION (PRIVAL METHOD))?
Its mutagenic call is “active; positive”.

And the mutagenic call (Test System: AMES SALMONELLA TYPHIMURIUM, Strain/Indicator: TA98, Metabolic Activation: RAT, LIVER, S-9, AROCLOR 1254, HAMSTER, LIVER, S-9, AROCLOR 1254, Method: STANDARD PLATE)?
Its mutagenic call is “active; positive”.

What about the mutagenic call (Test System: AMES SALMONELLA TYPHIMURIUM, Strain/Indicator: TA98, Metabolic Activation: RAT, LIVER, S-9, KC500 OR PHENOBARBITAL, Method: LIQUID SUSPENSION) of the same compound?
Its mutagenic call is “active; positive”.

What about the mutagenic call (Test System: AMES SALMONELLA TYPHIMURIUM, Strain/Indicator: TA100, Metabolic Activation: HAMSTER, LIVER, S-9, AROCLOR 1254 (10%), Method: STANDARD PLATE) of the same compound?
The mutagenic call was “active; positive”.

What about the mutagenic call (Test System: AMES SALMONELLA TYPHIMURIUM, Strain/Indicator: TA100, Metabolic Activation: HAMSTER, LIVER, S-9, Method: PREINCUBATION (PRIVAL METHOD)) of the same compound?
Its mutagenic call is “active; positive”.

And the mutagenic call (Test System: AMES SALMONELLA TYPHIMURIUM, Strain/Indicator: TA100, Metabolic Activation: RAT, LIVER, S-9, AROCLOR 1254, HAMSTER, LIVER, S-9, AROCLOR 1254, Method: STANDARD PLATE)?
The mutagenic call was “active; positive”.

And the mutagenic call (Test System: AMES SALMONELLA TYPHIMURIUM, Strain/Indicator: TA100, Metabolic Activation: RAT, LIVER, S-9, KC500 OR PHENOBARBITAL, Method: LIQUID SUSPENSION)?
The mutagenic call was “active; positive”.

And the mutagenic call (Test System: AMES SALMONELLA TYPHIMURIUM, Strain/Indicator: TA100, Metabolic Activation: RAT, LIVER, S-9, PHENOBARBITAL, Method: STANDARD PLATE)?
Its mutagenic call is “active; positive”.

And the mutagenic call (Test System: AMES SALMONELLA TYPHIMURIUM, Strain/Indicator: TA1538, Metabolic Activation: RAT, LIVER, S-9, AROCLOR 1254, HAMSTER, LIVER, S-9, AROCLOR 1254, Method: STANDARD PLATE)?
Its mutagenic call is “active; positive”.

And the mutagenic call (Test System: AMES SALMONELLA TYPHIMURIUM, Strain/Indicator: TA1538, Metabolic Activation: RAT, LIVER, S-9, PHENOBARBITAL, Method: STANDARD PLATE)?
Its mutagenic call is “active; positive”.

And the mutagenic call (Test System: Mouse lymphoma, Strain/Indicator: L5178Y (tk+/tk-), Metabolic Activation: None, Method: Suspension/plate)?
The mutagenic call was “inactive; inconclusive (pevious evaluation negative)”.

What about the mutagenic call (Test System: Mouse lymphoma, Strain/Indicator: L5178Y (tk+/tk-), Metabolic Activation: Rat, Liver, S-9, Aroclor 1254, Method: Suspension/plate) of the same compound?
Its mutagenic call is “active; positive”.

What does the source list for O=C=Nc1cccc2c(N=C=O)cccc12?
mutagenic call [1]: inactive; negative; mutagenic call (Test System: AMES SALMONELLA TYPHIMURIUM, Strain/Indicator: TA98, Metabolic Activation: RAT LIVER S-9, PHENOBARBITAL AND BETA-NAPHTHOFLAVONE, Method: PREINCUBATION): inactive; negative; mutagenic call [2]: inactive; negative; mutagenic call (Test System: AMES SALMONELLA TYPHIMURIUM, Strain/Indicator: TA100, Metabolic Activation: RAT LIVER S-9, PHENOBARBITAL AND BETA-NAPHTHOFLAVONE, Method: PREINCUBATION): inactive; negative; mutagenic call [3]: inactive; negative; mutagenic call (Test System: AMES SALMONELLA TYPHIMURIUM, Strain/Indicator: TA1535, Metabolic Activation: RAT LIVER S-9, PHENOBARBITAL AND BETA-NAPHTHOFLAVONE, Method: PREINCUBATION): inactive; negative; mutagenic call [4]: inactive; negative; mutagenic call (Test System: AMES SALMONELLA TYPHIMURIUM, Strain/Indicator: TA1537, Metabolic Activation: RAT LIVER S-9, PHENOBARBITAL AND BETA-NAPHTHOFLAVONE, Method: PREINCUBATION): inactive; negative; mutagenic call [5]: inactive; negative; mutagenic call (Test System: AMES SALMONELLA TYPHIMURIUM, Strain/Indicator: TA1538, Metabolic Activation: RAT LIVER S-9, PHENOBARBITAL AND BETA-NAPHTHOFLAVONE, Method: PREINCUBATION): inactive; negative; mutagenic call (Test System: E.COLI, Strain/Indicator: WP2UVRA, Metabolic Activation: NONE, Method: PREINCUBATION): inactive; negative; mutagenic call (Test System: E.COLI, Strain/Indicator: WP2UVRA, Metabolic Activation: RAT LIVER S-9, PHENOBARBITAL AND BETA-NAPHTHOFLAVONE, Method: PREINCUBATION): inactive; negative

Which results are given for O=C1C=CC(=O)c2c(O)c(Cl)c(Cl)c(O)c21?
mutagenic call (Test System: AMES SALMONELLA TYPHIMURIUM, Strain/Indicator: TA97, Metabolic Activation: NONE, Method: PREINCUBATION): inactive; negative; mutagenic call (Test System: AMES SALMONELLA TYPHIMURIUM, Strain/Indicator: TA97, Metabolic Activation: RAT, LIVER, S-9, PHENOBARBITAL AND 5,6-BENZOFLAVONE, Method: PREINCUBATION): active; positive; mutagenic call [1]: inactive; negative; mutagenic call (Test System: AMES SALMONELLA TYPHIMURIUM, Strain/Indicator: TA98, Metabolic Activation: RAT, LIVER, S-9, PHENOBARBITAL AND 5,6-BENZOFLAVONE, Method: PREINCUBATION): inactive; negative; mutagenic call [2]: inactive; negative; mutagenic call (Test System: AMES SALMONELLA TYPHIMURIUM, Strain/Indicator: TA100, Metabolic Activation: RAT, LIVER, S-9, PHENOBARBITAL AND 5,6-BENZOFLAVONE, Method: PREINCUBATION): inactive; negative; mutagenic call (Test System: AMES SALMONELLA TYPHIMURIUM, Strain/Indicator: TA102, Metabolic Activation: NONE, Method: PREINCUBATION): inactive; negative; mutagenic call (Test System: AMES SALMONELLA TYPHIMURIUM, Strain/Indicator: TA102, Metabolic Activation: RAT, LIVER, S-9, PHENOBARBITAL AND 5,6-BENZOFLAVONE, Method: PREINCUBATION): active; positive; mutagenic call (Test System: AMES SALMONELLA TYPHIMURIUM, Strain/Indicator: TA104, Metabolic Activation: NONE, Method: PREINCUBATION): active; positive; mutagenic call (Test System: AMES SALMONELLA TYPHIMURIUM, Strain/Indicator: TA104, Metabolic Activation: RAT, LIVER, S-9, PHENOBARBITAL AND 5,6-BENZOFLAVONE, Method: PREINCUBATION): active; positive; mutagenic call [3]: inactive; negative; mutagenic call (Test System: AMES SALMONELLA TYPHIMURIUM, Strain/Indicator: TA1535, Metabolic Activation: RAT, LIVER, S-9, PHENOBARBITAL AND 5,6-BENZOFLAVONE, Method: PREINCUBATION): inactive; negative; mutagenic call [4]: inactive; negative; mutagenic call (Test System: AMES SALMONELLA TYPHIMURIUM, Strain/Indicator: TA1537, Metabolic Activation: RAT, LIVER, S-9, PHENOBARBITAL AND 5,6-BENZOFLAVONE, Method: PREINCUBATION): active; positive; mutagenic call [5]: inactive; negative; mutagenic call (Test System: AMES SALMONELLA TYPHIMURIUM, Strain/Indicator: TA1538, Metabolic Activation: RAT, LIVER, S-9, PHENOBARBITAL AND 5,6-BENZOFLAVONE, Method: PREINCUBATION): inactive; negative; mutagenic call (Test System: AMES SALMONELLA TYPHIMURIUM, Strain/Indicator: TA2637, Metabolic Activation: NONE, Method: PREINCUBATION): inactive; negative; mutagenic call (Test System: AMES SALMONELLA TYPHIMURIUM, Strain/Indicator: TA2637, Metabolic Activation: RAT, LIVER, S-9, PHENOBARBITAL AND 5,6-BENZOFLAVONE, Method: PREINCUBATION): active; positive

With Cc1ccc2ccc3c4ccccc4cc4ccc1c2c43 as the compound, how does the mutagenic call (Test System: AMES SALMONELLA TYPHIMURIUM, Strain/Indicator: TA100, Metabolic Activation: RAT, INTACT HEPATOCYTES, AROCLOR 1254, Method: PREINCUBATION) read?
The mutagenic call was “active; positive”.

And the mutagenic call (Test System: AMES SALMONELLA TYPHIMURIUM, Strain/Indicator: TA100, Metabolic Activation: RAT, NADPH-FORTIFIED HOMOGENIZED HEPATOCYTES, AROCLOR 1254, Method: PREINCUBATION)?
The mutagenic call was “active; positive”.
